Data from US5350748A, “3-thio or amino substituted-benzo[b]thiophene-2-carboxamides and 3-oxygen, thio, or amino substituted-benzofuran-2-carboxamides as inhibitors of cell adhesion” (Warner-Lambert Company, priority 1993, dated 1994).

Test system: human neutrophil adhesion to TNF-α-stimulated human umbilical vein endothelial cells (HUVEC)
Assay: Modified method: inhibition of human neutrophil adhesion to TNF-α-stimulated human umbilical vein endothelial cells (calcein-labeled neutrophils)
Type: cell-based
Conditions: 33 μM, neutrophils labeled with calcein, read-out: Adhesion ECA, % inhibition
Description: The 3-thiol, thioether, amino, alkylamino, or arylamino-benzo[b]thiophene-2-carboxamides and 3-alkoxy, aryloxy, thiol, thioether, amino, alkylamino, or arylamino-benzofuran-2-carboxamides have been shown in an in vitro assay to prevent the adhesion of neutrophils to human umbilical vein endothelial cells (HUVECS) stimulated with TNF-α. In this assay, HUVECS are stimulated with TNF-α for 4 hours, after which the cells are assayed for their ability to adhere to human neutrophils labeled with either ^51 Cr or calcein, a fluorescent dye. The details of this assay are described in the DETAILED DESCRIPTION.
Neutrophils were isolated from anticoagulant-treated venous blood obtained from healthy human volunteers according to the method of Ferrante and Thong [J. Immunol. Methods 24, 389-93 (1978)]. The cell preparations consisted of greater than 98% neutrophils.
Modified Method for Determining the Inhibition of Human Neutrophil Adhesion to TNF-α, IL-1α, and LPS Stimulated Human Umbilical Vein Endothelial Cells
The previous assay using ^51 Cr labeled human neutrophils has been modified. The neutrophils are now labeled with the fluorescent dye calcein. The current method allows for quantification of neutrophil adherence by fluorescence spectroscopy.
Second passage HUVEC (Clonetics Corporation, San Diego, Calif., CC-2617) were seeded into Coring (Corning glass works, Corning, N.Y.) 96-well cell culture plates at approximately 5×10^3 cells/well and grown to confluency in supplemented endothelial basal medium (EBM, MCDB-131, Clonetics, 10 ng/mL EGF, 1 μg/mL hydrocortisone, 0.4% bovine brain extract, 5% Fetal Bovine Serum). One day prior to running the assay, typically 3 days postseeding, the cultures were refed with 0.2 mL/well supplemented EBM (S-EBM).
Test compounds were prepared as 10 mL stock solutions at a concentration of 1.0 mM. The compounds were initially solubilized in 0.1 mL DMSO followed by the addition of 9.9 mL S-EBM. The drug preparations were then diluted in one step to a concentration of 66.6 μM or 200 μM. Solubilizations and dilutions were performed in polystyrene containers.
Recombinant human tumor necrosis factor-α (TNF, Genzyme, Boston, Mass., code TNF-H) was prepared at 400 U/mL in S-EBM. Stock TNF was prepared to 20,000 U/mL in Delbecco's phosphate-buffered saline (PBS, Gibco, Grand Island N.Y.) plus 0.1% BSA and stored at -70° C. HUVEC were washed one time with 0.2 mL warm unsupplemented EBM and then stimulated for 4hours at 37° C. with 200 U/mL TNF in the presence of 33.3 μM or 100 μM test compound. This was accomplished by adding 0.1 mL of 400 U/mL TNF and 0.1 mL 66.6 μM or 0.1 mL of 200 μM test compound. These additions were done slowly as to not disrupt the HUVEC monolayer. Each compound was tested in six wells. Unstimulated (vehicle control) and TNF-stimulated without test compound treatments were also run in each plate.
One hour prior to adding the neutrophils (isolated as previously described) to the HUVEC, neutrophils (5×10^6 /mL) were labeled for 30 minutes at 37° C. with 5 μM calcine-AM (Molecular Probes, Eugene, Oreg.) in Hanks' balanced salt solution plus 0.45% BSA. Stock calcein was prepared to 5mM in anhydrous DMSO and stored desiccated at -20° C. At the end of the incubation the cells were washed two times in cold HBSS and resuspended to a final concentration of 1×10^6 cells/mL in unsupplemented EBM.
At the end of the 4-hour stimulation and immediately prior to the addition of the neutrophils to the HUVEC monolayer, the plates were washed with 0.2 ml warm unsupplemented EBM to remove TNF and drug. Neutrophils (1×10^5 cells) were slowly added to each of the treated wells and incubated for 30 minutes at 37° C. At the end of the incubation the plates were washed two times with 0.2 mL warm unsupplemented EBM followed by a final addition of 0.1 mL for plate scanning.
The fluorescence was determined using a Millipore Cytofluor 2300 system (excitation=480, emission=530, sensitivity=4). […]

Row | SMILES | inhibition at 33 µM [%]
1 | COC(=O)CCSc1c(C(N)=O)sc2ccc(OC)cc12 [Example 10, Methyl 3-[[2-(aminocarbonyl)-5-methoxybenzo[b]thien-3-yl]thio]propanoate] | 55
2 | COc1ccc2sc(C(=O)Nc3ccc(C(=O)O)cc3)c(SC(C)C)c2c1 [Example 8, 4-[[[5-Methoxy-3[(1-methylethyl)thio]benzo[b]thien-2yl]carbonyl]amino]benzoic acid] | 13
3 | COc1ccc2sc(C(N)=O)c(S(=O)(=O)C(C)C)c2c1 [Example 3, 5-Methoxy-3-[(1-methylethyl)sulfonyl]benzo[b]thiophene-2-carboxamide] | 32
4 | COC(=O)CCCCSc1c(C(N)=O)sc2ccc(OC)cc12 [Example 13] | 21
5 | CC(C)Sc1c(C(N)=O)sc2ccc(OCc3ccccc3)cc12 [Example 17, 3-[(1-Methylethyl)thio]-5-(phenylmethoxy)benzo[b]thiophene-2-carboxamide] | 24
6 | COc1cccc2sc(C(N)=O)c(N(C)C)c12 [Example 20, 3-(Dimethylamino)-4-methoxybenzo[b]thiophene-2carboxamide] | 63
7 | COc1ccc2sc(C(N)=O)c(SCCN3CCOCC3)c2c1 [Example 11, 5-Methoxy-3-[[2-(4-morpholinyl)ethyl]thio]benzo[b]thiophene-2-carboxamide] | 27
8 | CSc1ccc2sc(C(N)=O)c(N(C)C)c2c1 [Example 21, 3-Dimethylamino-5-(methylthio)benzo[b]thiophene-2-carboxamide] | 53
9 | CC(C)Oc1c(C(N)=O)oc2ccc(O)cc12 [Example 38, 5-Hydroxy-3-(1-methylethoxy)-2-benzofurancarboxamide] | 67
10 | COc1ccc2sc(C(N)=O)c(SCC(=O)O)c2c1 [Example 15, [[2-(Aminocarbonyl)-5-methoxybenzo[b]thien-3-yl]thio]acetic acid] | 7
11 | COC(=O)c1ccc(CSc2c(C(N)=O)sc3ccc(OC)cc23)cc1 [Example 16, Methyl 4-[[[2-(aminocarbonyl)-5-methoxybenzo[b]thien-3-yl]thio]methyl]benzoate] | 10
12 | NC(=O)c1oc2cccc(Cl)c2c1N [Example 26, 3-Amino-4-chloro-2-benzofurancarboxamide] | 24
13 | COc1ccc2sc(C(N)=O)c(SCCCCC(=O)O)c2c1 [Example 14] | 37
14 | COc1ccc2sc(C(N)=O)c(SCc3ccccc3)c2c1 [Example 6, 5-Methoxy-3-[(phenylmethyl)thio]benzo[b]thiophene-2-carboxamide] | 35
15 | CC(C)Sc1c(C(N)=O)sc2cccc(Cl)c12 [Example 12, 4-Chloro-3-[(1-methylethyl)thio]benzo[b]thiophene-2-carboxamide] | 34
16 | COc1ccc2sc(C(N)=O)c(S)c2c1 [Example 9, 3-Mercapto-5-methoxybenzo[b]thiophene-2-carboxamide] | 15
17 | COc1cccc2sc(C(N)=O)c(N)c12 [Example 19, 3-Amino-4-methoxybenzo[b]thiophene-2-carboxamide] | 30
18 | COC(=O)c1ccc(NC(=O)c2sc3ccc(OC)cc3c2SC(C)C)cc1 [Example 7, Methyl 4-[[[5-methoxy-3-[(1-methylethyl)thio]benzo[b]thien-2yl]carbonyl]amino]benzoate] | 19
19 | CN(C)c1c(C(N)=O)sc2cccc(Cl)c12 [Example 18, 4-Chloro-3-(dimethylamino)benzo[b]thiophene-2-carboxamide] | 10
20 | NC(=O)c1oc2ccccc2c1N [Example 25, 3-Amino-2-benzofurancarboxamide] | 21

Same assay, conditions: 100 μM, neutrophils labeled with calcein, read-out: Adhesion ECA, % inhibition

Row | SMILES | inhibition at 100 µM [%]
21 | CC(C)Oc1c(C(=O)NCc2ccccc2)oc2ccc(Cl)cc12 [Example 32, 5-Chloro-3-(1-methylethoxy)-N-(phenylmethyl)-2-benzofurancarboxamide] | 95
22 | CC(C)Oc1c(C(N)=O)oc2ccc(Cl)cc12 [Example 28, 5-Chloro-3-(1-methylethoxy)-2-benzofurancarboxamide] | 52
23 | COc1ccc2oc(C(N)=O)c(OCc3ccccc3)c2c1 [Example 36, 5-Methoxy-3-(phenylmethoxy)-2-benzofurancarboxamide] | 4
24 | CC(C)Oc1c(C(N)=O)oc2ccc(-c3ccccc3)cc12 [Example 37, 3-(1-Methylethoxy)-5-phenyl-2-benzofurancarboxamide] | 68
25 | CC(C)NC(=O)c1oc2ccccc2c1OC(C)C [Example 33, 3-(1-Methylethoxy)-N-(1-methylethyl)-2-benzofurancarboxamide] | 15
26 | CC(C)Oc1c(C(=O)Nc2ccccc2)oc2ccc(Cl)cc12 [Example 31, 5-Chloro-3-(1-methylethoxy)-N-phenyl-2-benzofurancarboxamide] | 11
27 | CNc1c(C(N)=O)[s+]([O-])c2ccc(OC)cc12 (stereo not shown) [Example 22, 5-Methoxy-3-(methylamino)benzo[b]thiophene-2-carboxamide-1-oxide] | 16
28 | COc1ccc2c(c1)c(Nc1ccccc1)c(C(N)=O)[s+]2[O-] (stereo not shown) [Example 24, 5-Methoxy-3-(phenylamino)benzo[b]thiophene-2-carboxamide-1-oxide] | 21
29 | CC(C)Oc1c(C(=O)Nc2ccccc2)oc2ccccc12 [Example 34, 3-(1-Methylethoxy)-N-phenyl-2-benzofurancarboxamide] | 70
30 | CC(C)Oc1c(C(N)=O)oc2ccccc12 [Example 29, 3-(1-Methylethoxy)-2-benzofurancarboxamide] | 20
31 | COc1ccc2c(c1)c(NC(C)C)c(C(N)=O)[s+]2[O-] (stereo not shown) [Example 23, 5-Methoxy-3-[(1-methylethyl)amino]benzo[b]thiophene-2-carboxamide-1-oxide] | 7
32 | COc1ccc2oc(C(=O)NCc3ccccc3)c(OC(C)C)c2c1 [Example 30, 5-Methoxy-3-(1-methylethoxy)-N-(phenylmethyl)-2-benzofurancarboxamide] | 42
33 | CC(C)Oc1c(C(=O)NCc2ccccc2)oc2ccccc12 [Example 35, 3-(1-Methylethoxy)-N-(phenylmethyl)-2-benzofurancarboxamide] | 61

Same assay, conditions: footnote a, neutrophil label not given, IC50 by linear regression from 33.3, 10.0, 3.3 and 1.0 μM, read-out: Adhesion ECA, IC50

Row | SMILES | IC50 [µM]
34 | COc1ccc2oc(C(N)=O)c(OC(C)C)c2c1 [Example 27, 5-Methoxy-3-(1-methylethoxy)-2-benzofurancarboxamide] | 13
